Consider one compound from patent publication US12071431B2, “Pyridin-sulfonamide compounds for the treatment of conditions related to interleukin 1 beta” (ALLINKY BIOPHARMA, priority 2018, dated 2024).

The target of one experiment is Recombinant Human MAPK8 (Homo sapiens, UniProt P45983). The experiment can be described thus: In vitro binding of JNK1 (MAPK8), SPRi. To be noted: 4° C. Here is the method:
Example 13—In Vitro Binding of JNK1 (MAPK8)
Various concentrations of Recombinant Human MAPK8 dissolved in water were manually printed onto a bare gold-coated (thickness 47 nm) PlexArray Nanocapture Sensor Chip (Plexera Bioscience, Seattle, WA, US) at 40% humidity. Each concentration was printed in replicate, and each spot contained 0.2 μL of the protein solution. The chip was incubated in 80% humidity at 4° C. overnight, and rinsed with 10×PBST for 10 min, 1×PBST for 10 min, and deionized water twice for 10 min. The chip was then blocked with 5% (w/v) non-fat milk in water overnight, and washed with 10×PBST for 10 min, 1×PBST for 10 min, and deionized water twice for 10 min before being dried under a stream of nitrogen prior to use.
Surface Plasmon Resonance Imaging (SPRi) measurements were performed with PlexAray HT (Plexera Bioscience, Seattle, WA, US). Collimated light (660 nm) passes through the coupling prism, reflects off the SPR-active gold surface, and is received by the CCD camera. Buffers and samples were injected by a non-pulsatile piston pump into the 30 μL flowcell that was mounted on the coupling prism. Each measurement cycle contained four steps: washing with PBST running buffer at a constant rate of 2 μL/s to obtain a stable baseline, sample injection at 5 μL/s for binding, surface washing with PBST at 2 μL/s for 300 s, and regeneration with 0.5% (v/v) H3PO4 at 2 μL/s for 300 s. All the measurements were performed at 4° C.
The signal changes after binding and washing were recorded in AU as the assay value. Selected protein-grafted regions in the SPR images were analyzed, and the average reflectivity variations of the chosen areas were plotted as a function of time. Real-time binding signals were recorded and analyzed by Data Analysis Module (DAM, Plexera Bioscience, Seattle, WA, US). Kinetic analysis was performed using BIAevaluation 4.1 software (Biacore, Inc.).

A further experiment has as its system IL-1β. The experiment can be described thus: In vitro inhibition of IL-1β in human primary macrophages challenged with LPS (ELISA). The conditions noted are these: Primary macrophage, 2 hours compound pre-treatment, 100 ng/mL LPS, 16 hours, read-out: IC50 (IL-Iβ inhibition). The experiment is classed as cell-based. Here is the method:
Example 12—In Vitro Inhibition of IL-1β in Human Primary Macrophages Challenged with LPS
5 mL of RPMI media without serum (1:1) was added to a sample of 5 mL of human whole blood in EDTA or sodium citrate and mixed well by inversion. 3 mL of Histopaque-1077 was added to a 15 mL conical centrifuge tube and brought to room temperature. Using a transfer pipette, 10 mL of the blood-RPMI mixture was carefully layered onto the Histopaque-1077 and was centrifuged at 400×g for exactly 30 minutes at room temperature.
After centrifugation, a pasteur pipette was used to aspirate the upper layer to within 0.5 cm of the opaque interface containing the mononuclear cells. The upper layer was discarded. With a Pasteur pipette, the opaque interface was carefully transferred to a clean conical centrifuge tube. 5 mL RPMI was added to the tube and mixed by inversion, followed by centrifugation at 250×g for exactly 10 minutes. The supernatant was aspirated and discarded.
The leukocyte pellet was re-suspended with 5 mL RPMI and mixed gently with a Pasteur pipette, followed by centrifugation at 250×g for exactly 10 minutes. The pellet was washed 3× with PBS and re-suspended in RPMI medium.
2×10^5 PBMCs at a total volume of 200 μL/well were plated into a 96-well plate and incubated for 4 hrs at 37° C. in a CO2 incubator to allow the monocytes to settle, leaving the lymphocytes in suspension. Following incubation, 100 μL were aspirated out of each well to ensure removal of the lymphocyte population.
The monocytes were differentiated to macrophages by addition of 200 ng/mL of recombinant human GM-CSF (4 mg/mL stock) and incubated at 37° C./5% CO2 for 6 days. The medium was changed every two days by removing half the volume of medium in the well and re-supplementing with fresh RPMI complete medium and recombinant human GM-CSF.
Following differentiation, the cells were treated in duplicates with a compound according to the invention in a total volume of 50 μL, maintaining a final DMSO percentile of 0.5%. The plate was transferred to an incubator maintained at 37° C./5% CO2 for 2 hours. The cells were stimulated with 100 ng/mL of LPS (4×) (1 mg/mL stock) in a total volume of 50 μL.
The plate was transferred to an incubator maintained at 37° C./5% CO2 for 16 hours.
• 1. Each well from a pre-coated ELISA plate was aspirated and washed with wash buffer (0.05% Tween 20 in PBS; pH 7.2-7.4) by filling each well with wash buffer (300 μL). The process was repeated two times for a total of three washes. The liquid was removed completely at each step. After the last wash, any remaining wash buffer was removed. • 2. Plates were blocked by adding 300 μL of block buffer (1% BSA in PBS) to each well and incubated at room temperature for 1 hour. • 3. The aspiration/wash as in step 1 was repeated. • 4. 100 μL of sample or standard prepared in reagent diluent (0.1% BSA, 0.05% Tween 20 in PBS pH7.2-7.4) was added. The wells were covered with an adhesive strip and incubated for 2 hours at room temperature. • 5. The aspiration/wash as in step 1 was repeated. • 6. 100 μL of detection antibody, diluted in reagent diluent, was added to each well. The wells were covered with a new adhesive strip and incubated for 2 hours at room temperature. • 7. The aspiration/wash as in step 1 was repeated. • 8. 100 μL of the working dilution (1:200 from the stock) and streptavidin-HRP was added to each well. The plate was covered and incubated for 20 minutes at room temperature. • 9. 100 μL of substrate solution (1:1 mixture of H2O2 and tetramethylbenzidine) was added to each well and incubated for 20 minutes at room temperature. • 10.50 μL of stop solution (2N H2SO4) was added to each well. The plate was tapped gently to ensure thorough mixing. • 11. The optical density of each well was determined immediately using a microplate reader (Spectramax Plus) set to 450 nm. Cytokine Viability Assessment […]

Sequence of Recombinant Human MAPK8 (P45983 whole entry): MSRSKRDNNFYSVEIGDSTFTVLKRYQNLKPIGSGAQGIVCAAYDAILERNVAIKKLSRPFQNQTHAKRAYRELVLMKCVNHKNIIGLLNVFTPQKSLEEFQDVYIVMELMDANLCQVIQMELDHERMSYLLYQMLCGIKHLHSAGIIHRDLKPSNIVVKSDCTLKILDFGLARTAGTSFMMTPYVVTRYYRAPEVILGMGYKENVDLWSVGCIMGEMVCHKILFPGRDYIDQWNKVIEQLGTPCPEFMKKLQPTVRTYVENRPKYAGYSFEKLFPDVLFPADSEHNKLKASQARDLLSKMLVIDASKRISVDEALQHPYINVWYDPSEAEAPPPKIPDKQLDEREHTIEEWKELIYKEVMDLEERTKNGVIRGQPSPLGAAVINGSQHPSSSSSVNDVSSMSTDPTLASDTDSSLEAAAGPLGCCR

In general, koff refers to a measure of how fast the partners let go of each other. What is called Kd is a measure of binding affinity in units of concentration. For orientation: IC50 means the midpoint of a concentration-inhibition curve. With `CCOc1ccc(Oc2cc(S(=O)(=O)N(C)C)cnc2N2CCC(Oc3ccc(Cl)cc3)CC2)cc1` [Compound 7], on Recombinant Human MAPK8 (association rate, read-out: Ka), the kon stood at 22900 M⁻¹ s⁻¹. Besides, on Recombinant Human MAPK8 (dissociation rate), the koff was 0.000782 s⁻¹. The equilibrium dissociation constant (Kd) on Recombinant Human MAPK8 (read-out: equilibrium dissociation constant (KD Value)) worked out at 34.1 nM. In addition, the half-inhibitory concentration (IC50) with IL-1β was 27 nM.
